Where two headings read alike, the source gives them in different places. Non-standard residues stand in square brackets, D forms with d. Residues, ends and D or L forms follow the SMILES beside them. Sar = CNCC(=O)O

The assay has as its target Sushi domains (SD1/2) protein. In words: Fluorescence polarization (FP) competition assay with AJAP-1probe, calculated Ki. The conditions noted are these: read-out: Ki (nM) mean ± SEM. Format: binding. The gist of the method: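 Competition against 25 nM TAMRA-labelled peptide probe binding SD1/2, in PBS pH 7.4 with 1% BSA at rt, read at 530/580 nm. IC50 from sigmoidal dose-response fits, at least triplicate; Ki calculated from IC50 using probe Kd from saturation binding.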

Where [1] appears, read: Table 9, Ala-, D-amino acids and N-methylation scans of PIANPWT.
[2] abbreviates: Table 13, peptides for affinity maturation.

As usually defined, the Ki is a dissociation constant, usually derived from enzyme kinetics or from competition with a known ligand. In the case of `CC[C@H](C)[C@H](NC(=O)[C@H](C)NC(=O)[C@H](Cc1c[nH]c2ccccc12)NC(=O)[C@@H]1CCCN1C(C)=O)C(=O)N[C@H](C(=O)N[C@@H](Cc1c[nH]c2ccccc12)C(=O)N(C)CC(=O)N1CCC[C@H]1C(=O)N[C@H](C(=O)N[C@H](C(=O)N[C@@H](CO)C(=O)N[C@@H](CCCNC(=N)N)C(=O)N[C@@H](CCC(=O)O)C(=O)N[C@@H](CC(=O)O)C(N)=O)C(C)C)[C@@H](C)O)C(C)C` [PWAIVW(N-Me-G)PTVSRED] (Ac-PWAIVW[Sar]PTVSRED-NH2), the Ki under setting [1] is 58300 ± 4410 nM.

As to `CC[C@H](C)[C@H](NC(=O)[C@H](C)NC(=O)[C@H](Cc1c[nH]c2ccccc12)NC(=O)[C@@H]1CCCN1C(C)=O)C(=O)N[C@H](C(=O)N[C@@H](Cc1c[nH]c2ccccc12)C(=O)NCC(=O)N(C)CC(=O)N[C@H](C(=O)N[C@H](C(=O)N[C@@H](CO)C(=O)N[C@@H](CCCNC(=N)N)C(=O)N[C@@H](CCC(=O)O)C(=O)N[C@@H](CC(=O)O)C(N)=O)C(C)C)[C@@H](C)O)C(C)C` [PWAIVWG(N-Me-G)TVSRED] (Ac-PWAIVWG[Sar]TVSRED-NH2), the Ki under setting [1] is 525 ± 22 nM and the inhibition constant Ki under setting [2] was 525 ± 22 nM.

In the case of `CC[C@H](C)[C@H](NC(=O)[C@H](C)NC(=O)[C@H](Cc1c[nH]c2ccccc12)NC(=O)[C@@H]1CCCN1C(C)=O)C(=O)N[C@H](C(=O)N[C@@H](Cc1c[nH]c2ccccc12)C(=O)NCC(=O)N[C@@H](C)C(=O)N[C@H](C(=O)N[C@H](C(=O)N[C@@H](CO)C(=O)N[C@@H](CCCNC(=N)N)C(=O)N[C@@H](CCC(=O)O)C(=O)N[C@@H](CC(=O)O)C(N)=O)C(C)C)[C@@H](C)O)C(C)C` [PWAIVWGATVSRED] (Ac-PWAIVWGATVSRED-NH2), the inhibitory constant (Ki) under setting [1] was 1500 ± 34 nM.

For the molecule `CC[C@H](C)[C@H](NC(=O)[C@H](C)NC(=O)[C@H](Cc1c[nH]c2ccccc12)NC(=O)[C@@H]1CCCN1C(C)=O)C(=O)N[C@H](C(=O)N[C@@H](Cc1c[nH]c2ccccc12)C(=O)NCC(=O)N1CCC[C@H]1C(=O)N[C@@H](C)C(=O)N[C@H](C(=O)N[C@@H](CO)C(=O)N[C@@H](CCCNC(=N)N)C(=O)N[C@@H](CCC(=O)O)C(=O)N[C@@H](CC(=O)O)C(N)=O)C(C)C)C(C)C` [PWAIVWGPAVSRED] (Ac-PWAIVWGPAVSRED-NH2), under setting [1], the Ki is 1030 ± 26 nM.

Consider `CC[C@H](C)[C@H](NC(=O)[C@H](C)NC(=O)[C@H](Cc1c[nH]c2ccccc12)NC(=O)[C@@H]1CCCN1C(C)=O)C(=O)N[C@H](C(=O)N[C@@H](Cc1c[nH]c2ccccc12)C(=O)NCC(=O)N1CCC[C@H]1C(=O)N[C@H](C(=O)N[C@@H](C)C(=O)N[C@@H](CO)C(=O)N[C@@H](CCCNC(=N)N)C(=O)N[C@@H](CCC(=O)O)C(=O)N[C@@H](CC(=O)O)C(N)=O)[C@@H](C)O)C(C)C` [PWAIVWGPTASRED] (Ac-PWAIVWGPTASRED-NH2), for which, under setting [1], the Ki is 318 ± 3 nM.

As to `CC[C@H](C)[C@H](NC(=O)[C@H](C)NC(=O)[C@H](Cc1c[nH]c2ccccc12)NC(=O)[C@@H]1CCCN1C(C)=O)C(=O)N[C@H](C(=O)N[C@@H](Cc1c[nH]c2ccccc12)C(=O)NCC(=O)N1CCC[C@H]1C(=O)N[C@H](C(=O)N[C@@H](CC(=O)O)C(=O)N[C@@H](CO)C(=O)N[C@@H](CCCNC(=N)N)C(=O)N[C@@H](CCC(=O)O)C(=O)N[C@@H](CC(=O)O)C(N)=O)[C@@H](C)O)C(C)C` [PWAIVWGPTDSRED] (Ac-PWAIVWGPTDSRED-NH2), under “Table 12, deep mutational scanning validation variants of PIANPWT”, the Ki was 417 ± 6 nM.

As for `CC[C@H](C)[C@H](NC(=O)[C@H](C)NC(=O)[C@H](Cc1c[nH]c2ccccc12)NC(=O)[C@@H]1CCCN1C(C)=O)C(=O)N[C@H](C(=O)N[C@@H](Cc1c[nH]c2ccccc12)C(=O)NCC(=O)N1CCC[C@H]1C(=O)N[C@H](C(=O)NCC(=O)N[C@@H](CC(=O)O)C(=O)N[C@@H](CCC(=O)O)C(=O)N[C@@H](CC(=O)O)C(N)=O)[C@@H](C)O)C(C)C` [PWAIVWGPTGDED] (Ac-PWAIVWGPTGDED-NH2), the Ki under setting [2] was 222 ± 1 nM.

The values are drawn from patent publication US20260193293A1, “PEPTIDES CAPABLE OF INHIBITING PROTEIN-PROTEIN INTERACTIONS AT GABAB1A SUBUNIT AND USES THEREOF” (UNIVERSITY OF COPENHAGEN, priority 2022, published 2026).
